Reference: patent US5962502A, “Polyamidic acid derivatives with antigastrin activity, a method for their preparation, and their pharmaceutical use” (priority 1993, dated 1999)
pIC50: −log10 of the molar value.

Assays:
central CCK-B receptor = target: T1, central CCK-B receptor (Cavia porcellus, UniProt H0VZC5); assay: Inhibition of the binding of [3-H][N-methyl-N-leucine]CCK-8 to guinea-pig cortical membranes; conditions: for pIC50: 150 minutes at 25° C.
T1 construct: Cerebral cortices of male white guinea-pigs were thus used; from tissue; host or cells: cerebral cortex membranes of male white guinea-pigs
T1 sequence (H0VZC5 1-426): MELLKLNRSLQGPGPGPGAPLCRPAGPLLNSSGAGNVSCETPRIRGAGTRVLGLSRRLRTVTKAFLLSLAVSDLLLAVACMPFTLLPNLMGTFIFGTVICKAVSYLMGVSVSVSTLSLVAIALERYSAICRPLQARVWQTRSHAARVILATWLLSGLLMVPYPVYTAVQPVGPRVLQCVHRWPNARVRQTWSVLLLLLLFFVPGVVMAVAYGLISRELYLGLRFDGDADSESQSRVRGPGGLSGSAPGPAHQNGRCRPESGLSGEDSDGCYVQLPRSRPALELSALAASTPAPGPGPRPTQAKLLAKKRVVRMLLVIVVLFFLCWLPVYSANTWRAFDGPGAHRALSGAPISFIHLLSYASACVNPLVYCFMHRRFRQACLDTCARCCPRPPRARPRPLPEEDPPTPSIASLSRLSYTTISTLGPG
Protocol: The ability of the compounds of the invention to interact with the central CCK-B receptor was evaluated with the use of non-sulphated [3-H] […] 225 (3) (1990), 1278-1286].
Cerebral cortices of male white guinea-pigs were thus used, according to the method mentioned above, so as to obtain a membrane content corresponding to about 300 mcg of proteins/ml. The membranes were incubated together with the radioactive tracer and the compounds under test for 150 minutes at 25° C. After the supernatant had been discarded, the radioactivity associated with the pellet was determined with a liquid scintillator. The specific binding was determined as the difference between the binding in the absence and in the presence of 5.10^-6 M CCK-8.

[1] = target: T2, gastrin receptors or type-B cholecystokinin (CCK-B) receptors (Oryctolagus cuniculus, UniProt P46627); assay: Inhibition of the gastrin-induced increase of cytosolic calcium in rabbit gastric mucous-membrane cells (Fura 2); format: cell-based; conditions: for Ratio IC50 Binding cortex / IC50 (gastric mucous cells): binding values taken from Table 3; for IC50, inhibition of the increase of cytosolic calcium: rabbit gastric mucous cells enriched in parietal cells, gastrin 5×10^-8; for CCK-B-antagonistic activity IC50 (II): data taken from Table 4 (rabbit gastric mucous cells), reprinted in Table 6
T2 construct: Rabbit gastric mucous-membrane cells were prepared by conventional techniques; endogenous in cells; host or cells: freshly isolated rabbit gastric mucosal cells, enriched by elutriation to about 70% parietal cells
T2 sequence (P46627 1-452): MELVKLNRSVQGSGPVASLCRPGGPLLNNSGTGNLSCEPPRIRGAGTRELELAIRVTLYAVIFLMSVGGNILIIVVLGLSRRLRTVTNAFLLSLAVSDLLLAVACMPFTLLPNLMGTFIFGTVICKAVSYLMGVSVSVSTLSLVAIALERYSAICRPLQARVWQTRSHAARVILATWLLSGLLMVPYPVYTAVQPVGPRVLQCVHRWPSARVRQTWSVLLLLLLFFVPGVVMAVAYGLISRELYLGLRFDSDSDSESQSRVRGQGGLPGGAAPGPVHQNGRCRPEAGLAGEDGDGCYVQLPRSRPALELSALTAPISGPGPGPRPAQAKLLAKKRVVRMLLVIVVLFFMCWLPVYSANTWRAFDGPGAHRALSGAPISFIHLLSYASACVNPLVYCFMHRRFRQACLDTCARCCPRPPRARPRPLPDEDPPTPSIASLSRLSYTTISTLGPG
Source text: The parietal cells of the gastric mucous membrane are responsible for the secretion of HCl. They have specific membrane receptors which can be activated by gastrin and which have been defined as gastrin receptors or type-B cholecystokinin (CCK-B) receptors. Since it has been observed that the activation of the CCK-B receptors by gastrin leads to an increase in the cytosolic levels of calcium ions, a technique involving the measurement of the increase in intracellular calcium induced by gastrin in the presence and in the absence of the compounds of the invention was used as an index of the antigastrin activity of the compounds. Rabbit gastric mucous-membrane cells were prepared by conventional techniques with the use of collagenase and pronase as digestive enzymes. The cellular preparation obtained by the enzymatic digestion was composed of parietal cells, zymogen cells and mucous-membrane cells. […] The cells were then washed and resuspended in a saline solution buffered with HEPES containing, in mM: […] Each measurement was carried out on cells in suspension (0.8×10^6 /ml) at a thermostatically-controlled temperature of 37° C. and with constant magnetic stirring. The fluorescence was recorded with the use of a spectrofluorometer. The operative wavelengths were 340/380 nm for excitation and 505 nm for emission. […] Biol. Chem. 260 (1985), 3440]. […] The results thus obtained for some compounds of the invention are given in Table 4, which also gives an index derived from the ratio between the peripheral antigastrin activity just described and the displacement activity found in the test on binding to the guinea-pig cortex receptors described above.

CCK-A = target: T3, CCK-A (Cavia porcellus, UniProt Q63931); assay: Anti-CCK-A activity on guinea-pig gall bladder stimulated in vitro by CCK-8; conditions: for Ratio I/II (CCK-A IC50 / CCK-B IC50): gall bladder IC50 over gastric mucous cells IC50; for pIC50: guinea-pig gall bladder in vitro, CCK-8 10 ng/ml, read-out: CCK-A-antagonistic activity IC50 (I)
T3 construct: A longitudinal strip of guinea-pig gall-bladder was put in a bath for isolated organs; from tissue; host or cells: guinea-pig gall bladder longitudinal strip
T3 sequence (Q63931 1-430): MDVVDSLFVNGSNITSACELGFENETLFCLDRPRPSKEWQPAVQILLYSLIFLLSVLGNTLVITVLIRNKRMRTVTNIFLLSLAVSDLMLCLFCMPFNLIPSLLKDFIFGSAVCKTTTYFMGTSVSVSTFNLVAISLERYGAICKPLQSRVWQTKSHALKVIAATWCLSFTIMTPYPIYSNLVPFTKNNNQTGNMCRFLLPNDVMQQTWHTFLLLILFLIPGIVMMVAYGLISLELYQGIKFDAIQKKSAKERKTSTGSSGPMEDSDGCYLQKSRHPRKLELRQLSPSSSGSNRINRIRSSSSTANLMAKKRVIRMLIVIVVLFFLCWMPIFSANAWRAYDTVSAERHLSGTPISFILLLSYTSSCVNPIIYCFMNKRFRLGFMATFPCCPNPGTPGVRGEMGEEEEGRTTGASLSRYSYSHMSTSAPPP
Protocol: The experimental model used was guinea-pig gall bladder stimulated in vitro by CCK-8, with the use of lorglumide as the reference standard. A longitudinal strip of guinea-pig gall-bladder was put in a bath for isolated organs in the presence of Krebs buffer at a temperature of 32° C., with continuous oxygenation with an oxygen-CO2 mixture (95-[…]). The isometric contractions were detected by means of a force transducer and recorded.

| SMILES | times more active than the corresponding diastereoisomer at the carbon atom (**) (central CCK-B receptor; binding, guinea-pig cortex) | pIC50 (central CCK-B receptor; guinea-pig cortical membranes) | Ratio IC50 Binding cortex / IC50 (gastric mucous cells) [1] | IC50, inhibition of the increase of cytosolic calcium [1] | Ratio I/II (CCK-A IC50 / CCK-B IC50) (CCK-A) | pIC50 (CCK-A) | CCK-B-antagonistic activity IC50 (II) [1] | inhibition of the binding of [N-methyl-N-leucine]CCK-8, result in words (central CCK-B receptor; guinea-pig cortical membranes) | IC50 order of magnitude, peripheral antigastrin activity ([1]; rabbit gastric mucous cells) |
| --- | --- | --- | --- | --- | --- | --- | --- | --- | --- |
| CC1(C)CCC(NC(=O)[C@H](CCC(=O)O)NC(=O)CC[C@@H](NC(=O)c2cc(Cl)cc(Cl)c2)C(=O)N2CCC3(CCCC3)CC2)CC1 [Compound 34] | about twice | 6.14 | 10.4 | 70 nM |  |  |  |  |  |
| O=C(CC[C@@H](NC(=O)c1cc(Cl)cc(Cl)c1)C(=O)N1CCC2(CCCC2)CC1)NC(Cc1ccc(O)cc1)C(=O)O (stereo partly drawn) [Compound 18] |  | 6.49 | 1.6 | 200 nM |  |  |  |  |  |
| O=C(C[C@@H](NC(=O)c1cc(Cl)cc(Cl)c1)C(=O)N1CCC2(CCCC2)CC1)N[C@H](Cc1c[nH]c2ccccc12)C(=O)O [Compound 43] |  | 5.99 | 14.7 | 70 nM |  |  |  |  |  |
| CC(C)CC(NC(=O)CC[C@@H](NC(=O)c1cc(Cl)cc(Cl)c1)C(=O)N1CCC2(CCCC2)CC1)C(=O)O (stereo partly drawn) [Compound 6] |  | 6.42 | 7.6 | 50 nM |  |  |  |  |  |
| O=C(CC[C@@H](NC(=O)c1cc(Cl)cc(Cl)c1)C(=O)N1CCC2(CCCC2)CC1)N[C@H](Cc1ccccn1)C(=O)O [Compound 27] |  | 6.82 | 0.6 | 230 nM | 14.8 | 5.47 | 230 nM |  |  |
| CC(C)(C)CCNC(=O)[C@@H](CCC(=O)Nc1ccc(C(=O)O)cc1)NC(=O)c1cc(Cl)cc(Cl)c1 [Compound 53] |  | 5.19 |  | IN (IN (inactive) when the IC50 is >3.10^-5 M) |  |  |  |  |  |
| CN(C(=O)CC[C@@H](NC(=O)c1cc(Cl)cc(Cl)c1)C(=O)N1CCC2(CCCC2)CC1)C(Cc1ccccc1)C(=O)O (stereo partly drawn) [Compound 11] |  | 6.66 | 3.1 | 70 nM |  |  |  |  |  |
| O=C(CC[C@@H](NC(=O)c1cc(Cl)cc(Cl)c1)C(=O)N1CCC2(CCCC2)CC1)N[C@H](COCc1ccccc1)C(=O)O [Compound 23] |  | 6.57 | 4.5 | 60 nM |  |  |  |  |  |
| CN(CC(=O)O)C(=O)CC[C@@H](NC(=O)c1cc(Cl)cc(Cl)c1)C(=O)N1CCC2(CCCC2)CC1 [Compound 2] |  | 6.21 | 0.7 | 1500 nM |  |  |  |  |  |
| O=C(CC[C@@H](NC(=O)c1cc(Cl)cc(Cl)c1)C(=O)N1CCC2(CCCC2)CC1)NC(CCc1ccccc1)C(=O)O (stereo partly drawn) [Compound 16] |  | 6.52 | 2.0 | 150 nM |  |  |  |  |  |
| O=C(CC[C@@H](NC(=O)c1cc(Cl)cc(Cl)c1)C(=O)N1CCC2(CCCC2)CC1)NC(Cc1ccccc1)C(=O)O (stereo partly drawn) [Compound 8] |  | 6.70 | 3.3 | 60 nM |  |  |  |  |  |
| CCCCCN(CCCCC)C(=O)C(CCC(=O)O)NC(=O)c1ccc(Cl)c(Cl)c1 (stereo not drawn) [R-lorglumide, reference compound] |  |  |  |  |  | 7.30 |  |  |  |
| O=C(CC[C@@H](NC(=O)c1cc(Cl)cc(Cl)c1)C(=O)N1CCC2(CCCC2)CC1)NC(Cc1c[nH]c2ccccc12)C(=O)O (stereo partly drawn) [Compound 19] |  | 7.30 | 5.0 | 10 nM |  |  |  | potent inhibitors | nanomolar order of magnitude |
| O=C(CC[C@@H](NC(=O)c1cc(Cl)cc(Cl)c1)C(=O)N1CCC2(CCCC2)CC1)N[C@H](CC1CCCCC1)C(=O)O [Compound 28] |  | 6.19 | 6.5 | 100 nM |  |  |  |  |  |
| CC1(C)CCC(NC(=O)[C@@H](CCC(=O)O)NC(=O)CC[C@@H](NC(=O)c2cc(Cl)cc(Cl)c2)C(=O)N2CCC3(CCCC3)CC2)CC1 [Compound 35] |  | 5.77 | 14.2 | 120 nM |  |  |  |  |  |
| O=C(CC[C@@H](NC(=O)c1cc(Cl)cc(Cl)c1)C(=O)N1CCC2(CCCC2)CC1)N[C@H](Cc1ccc2ccccc2c1)C(=O)O [Compound 24] |  | 6.89 | 4.3 | 30 nM | 1527 | 4.34 | 30 nM |  |  |
| Cc1cc(C(=O)O)ccc1NC(=O)CC[C@@H](NC(=O)c1cc(Cl)cc(Cl)c1)C(=O)N1CCC2(CCCC2)CC1 [Compound 52] |  | 5.56 | 1.2 | 2330 nM |  |  |  |  |  |
| CN(C(=O)CC[C@@H](NC(=O)c1cc(Cl)cc(Cl)c1)C(=O)N1CCC2(CCCC2)CC1)[C@@H](Cc1c[nH]c2ccccc12)C(=O)O [Compound 22] |  | 6.42 | 7.6 | 50 nM |  |  |  |  |  |
| O=C(CC[C@@H](NC(=O)c1cc(Cl)cc(Cl)c1)C(=O)N1CCC2(CCCC2)CC1)Nc1ccc(C(=O)O)cc1 [Compound 47] |  | 5.76 | 4.5 | 380 nM |  |  |  |  |  |
